In patent publication US20260226020A1, “Nav 1.7 AND/OR Nav 1.8 BLOCKING HYDRAZIDES, PROCESSES FOR THE PREPARATION THEREOF, COMPOSITIONS, USES, METHODS OF TREATMENT USING SAME AND KITS” (Eurofarma Laboratórios S.A., priority 2023, published 2026):

Experiments:
[1] = target: T1, human sodium channels Nav 1.8 (Homo sapiens, UniProt Q9Y5Y9); assay: Automated whole-cell voltage-clamp (ScreenPatch 384P) sodium current block in CHO cells expressing Nav 1.8; assay type: cell-based; settings: CHO cells stably expressing human Nav 1.8; whole cell patch clamp, inactivation step -40 mV 8 s, test step 10 mV (TP1A), room temperature; mean where tested in two or more assays; read-out: Nav1.8 IC50
T1 construct: expressed in transfected cells
T1 sequence (Q9Y5Y9 whole entry): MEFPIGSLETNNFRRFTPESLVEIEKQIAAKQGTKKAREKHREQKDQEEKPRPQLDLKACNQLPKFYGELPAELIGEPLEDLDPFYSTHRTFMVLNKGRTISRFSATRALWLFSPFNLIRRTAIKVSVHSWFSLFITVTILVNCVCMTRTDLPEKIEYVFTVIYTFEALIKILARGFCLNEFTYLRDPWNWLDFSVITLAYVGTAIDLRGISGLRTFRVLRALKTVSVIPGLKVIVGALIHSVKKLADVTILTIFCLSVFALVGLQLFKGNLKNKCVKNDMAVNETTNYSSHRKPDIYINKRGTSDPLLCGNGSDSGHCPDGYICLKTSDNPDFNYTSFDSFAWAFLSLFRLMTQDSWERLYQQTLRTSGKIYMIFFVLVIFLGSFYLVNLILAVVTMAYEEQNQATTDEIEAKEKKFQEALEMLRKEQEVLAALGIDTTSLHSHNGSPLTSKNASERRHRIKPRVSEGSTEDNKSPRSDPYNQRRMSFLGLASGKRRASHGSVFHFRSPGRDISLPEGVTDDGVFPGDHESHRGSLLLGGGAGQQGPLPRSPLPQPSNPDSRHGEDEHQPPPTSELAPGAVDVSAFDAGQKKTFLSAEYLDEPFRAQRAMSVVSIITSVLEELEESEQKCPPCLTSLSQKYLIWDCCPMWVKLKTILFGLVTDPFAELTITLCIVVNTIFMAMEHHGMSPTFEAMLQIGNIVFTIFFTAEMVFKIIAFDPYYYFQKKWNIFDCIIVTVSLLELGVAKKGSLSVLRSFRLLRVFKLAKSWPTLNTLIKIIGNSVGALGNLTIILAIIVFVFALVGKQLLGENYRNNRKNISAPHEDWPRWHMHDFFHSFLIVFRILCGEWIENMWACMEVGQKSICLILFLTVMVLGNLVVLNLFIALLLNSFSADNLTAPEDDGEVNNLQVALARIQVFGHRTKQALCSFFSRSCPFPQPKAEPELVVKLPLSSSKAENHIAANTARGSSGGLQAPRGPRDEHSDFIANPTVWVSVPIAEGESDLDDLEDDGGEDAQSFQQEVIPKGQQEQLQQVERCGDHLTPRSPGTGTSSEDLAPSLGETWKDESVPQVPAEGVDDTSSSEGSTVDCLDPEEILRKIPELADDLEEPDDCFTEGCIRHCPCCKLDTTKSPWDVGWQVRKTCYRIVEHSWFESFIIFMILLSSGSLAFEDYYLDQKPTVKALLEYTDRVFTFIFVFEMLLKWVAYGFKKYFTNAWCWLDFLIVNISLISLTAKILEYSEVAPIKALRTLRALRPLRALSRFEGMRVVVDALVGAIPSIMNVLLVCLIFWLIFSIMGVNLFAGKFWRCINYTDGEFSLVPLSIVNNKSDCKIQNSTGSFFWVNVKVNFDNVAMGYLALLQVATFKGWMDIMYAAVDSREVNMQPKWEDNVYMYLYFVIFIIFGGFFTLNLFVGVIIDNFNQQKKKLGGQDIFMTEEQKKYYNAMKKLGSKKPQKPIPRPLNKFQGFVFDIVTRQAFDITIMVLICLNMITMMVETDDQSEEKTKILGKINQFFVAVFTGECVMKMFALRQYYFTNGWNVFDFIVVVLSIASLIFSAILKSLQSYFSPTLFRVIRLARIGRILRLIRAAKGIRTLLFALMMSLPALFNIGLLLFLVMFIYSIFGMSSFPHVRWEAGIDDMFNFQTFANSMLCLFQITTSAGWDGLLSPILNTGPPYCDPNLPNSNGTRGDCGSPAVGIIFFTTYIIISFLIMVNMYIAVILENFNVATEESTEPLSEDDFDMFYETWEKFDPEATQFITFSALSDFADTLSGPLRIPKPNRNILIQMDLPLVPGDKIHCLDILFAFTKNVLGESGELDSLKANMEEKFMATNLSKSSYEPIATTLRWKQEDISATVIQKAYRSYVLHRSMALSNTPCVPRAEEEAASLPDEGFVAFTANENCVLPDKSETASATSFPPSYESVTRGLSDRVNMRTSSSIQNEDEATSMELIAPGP
Method: (§1) Biological assays were performed on Chinese hamster ovary (CHO) cells that express human sodium channels Nav 1.8 or Nav 1.7 in a stable manner.
(§2) The experimental protocol voltage-clamp using the whole cell configuration was established on the automated ScreenPatch© 384P platform (SP384PE, Nanion Technologies, Livingston, NJ) and the results were recorded with a Nanion 384-well Patch Clamp chip (NPC) (Nanion Technologies, Livingston, NJ).
(§3) Formula I compounds were diluted in eight concentrations in the extracellular solution composed of saline saline solution, buffered with HEPES (mM): NaCl, 137; KCl, 4; CaCl2, 3.8; MgCl2, 1; HEPES, 10; Glucose, 10; pH 7.4. The […], 50; CsF, 90; MgCl2, 5; EGTA, 5; HEPES, 10; pH 7.2. The duration of exposure of each compound with cells expressing Nav 1.7 or Nav 1.8 was at least five minutes, and the assays were performed at room temperature.
(§4) The measurements of the sodium currents of Nav 1.8 and Nav 1.7 were obtained using the voltage protocol described below.
(§5) A holding voltage of −100 mV was established followed by an inactivation voltage step at −40 mV for 8 seconds, followed by a step of −100 mV for 20 ms, followed by a 20 ms step for 10 mV for Nav 1.8 or 0 mV for Nav 1.7 (TP1A) before returning to the holding voltage of −100 mV.
(§6) The protocol was repeated at a frequency of 0.05 Hz and the amplitude of the current was quantified throughout the recording of the TP1A phase. The variation in the amplitude of the peak current was evaluated according to the formula described below, after exposing the cells expressing the channels to each concentration of the different compounds:
(§7) wherein ITP1A,basal and ITP1A,molecule represent the peaks of sodium current input into TP1A before exposure to the compound and in the presence of the compound, respectively.
(§8) The decrease in the amplitude of the peak current, after the exposure of the cells to the compounds, was used to calculate the percentage of relative blockage of the channels in relation to the positive control according to the formula below: […]
(§9) wherein % V and % CP represent the means of the values of current inhibition with a vehicle (DMSO) and positive controls, respectively. The sodium currents of the positive control were considered as 100%.
(§10) wherein [Test] represents the concentration of the molecule evaluated, CI50 is the concentration of the compound that generates half of the maximum inhibition, N is the Hill coefficient, and % Block′ is the percentage of sodium channel current (Nav 1.8 and Nav 1.7) blocked at each concentration of the molecule evaluated. Data were obtained by nonlinear regression (nonlinear least squares) with XLfit for Excel (Microsoft, Redmond, WA).
(§11) The compounds were tested in at least one assay to obtain the value of CI50. For compounds that were tested in two or more assays, the results are described as the means of the CI50 values.

[2] = target: T2, human sodium channels Nav 1.7 (Homo sapiens, UniProt Q15858); assay: Automated whole-cell voltage-clamp (ScreenPatch 384P) sodium current block in CHO cells expressing Nav 1.7; assay type: cell-based; settings: CHO cells stably expressing human Nav 1.7; whole cell patch clamp, inactivation step -40 mV 8 s, test step 0 mV (TP1A), room temperature; mean where tested in two or more assays; read-out: Nav1.7 IC50
T2 construct: expressed in transfected cells
T2 sequence (Q15858 whole entry): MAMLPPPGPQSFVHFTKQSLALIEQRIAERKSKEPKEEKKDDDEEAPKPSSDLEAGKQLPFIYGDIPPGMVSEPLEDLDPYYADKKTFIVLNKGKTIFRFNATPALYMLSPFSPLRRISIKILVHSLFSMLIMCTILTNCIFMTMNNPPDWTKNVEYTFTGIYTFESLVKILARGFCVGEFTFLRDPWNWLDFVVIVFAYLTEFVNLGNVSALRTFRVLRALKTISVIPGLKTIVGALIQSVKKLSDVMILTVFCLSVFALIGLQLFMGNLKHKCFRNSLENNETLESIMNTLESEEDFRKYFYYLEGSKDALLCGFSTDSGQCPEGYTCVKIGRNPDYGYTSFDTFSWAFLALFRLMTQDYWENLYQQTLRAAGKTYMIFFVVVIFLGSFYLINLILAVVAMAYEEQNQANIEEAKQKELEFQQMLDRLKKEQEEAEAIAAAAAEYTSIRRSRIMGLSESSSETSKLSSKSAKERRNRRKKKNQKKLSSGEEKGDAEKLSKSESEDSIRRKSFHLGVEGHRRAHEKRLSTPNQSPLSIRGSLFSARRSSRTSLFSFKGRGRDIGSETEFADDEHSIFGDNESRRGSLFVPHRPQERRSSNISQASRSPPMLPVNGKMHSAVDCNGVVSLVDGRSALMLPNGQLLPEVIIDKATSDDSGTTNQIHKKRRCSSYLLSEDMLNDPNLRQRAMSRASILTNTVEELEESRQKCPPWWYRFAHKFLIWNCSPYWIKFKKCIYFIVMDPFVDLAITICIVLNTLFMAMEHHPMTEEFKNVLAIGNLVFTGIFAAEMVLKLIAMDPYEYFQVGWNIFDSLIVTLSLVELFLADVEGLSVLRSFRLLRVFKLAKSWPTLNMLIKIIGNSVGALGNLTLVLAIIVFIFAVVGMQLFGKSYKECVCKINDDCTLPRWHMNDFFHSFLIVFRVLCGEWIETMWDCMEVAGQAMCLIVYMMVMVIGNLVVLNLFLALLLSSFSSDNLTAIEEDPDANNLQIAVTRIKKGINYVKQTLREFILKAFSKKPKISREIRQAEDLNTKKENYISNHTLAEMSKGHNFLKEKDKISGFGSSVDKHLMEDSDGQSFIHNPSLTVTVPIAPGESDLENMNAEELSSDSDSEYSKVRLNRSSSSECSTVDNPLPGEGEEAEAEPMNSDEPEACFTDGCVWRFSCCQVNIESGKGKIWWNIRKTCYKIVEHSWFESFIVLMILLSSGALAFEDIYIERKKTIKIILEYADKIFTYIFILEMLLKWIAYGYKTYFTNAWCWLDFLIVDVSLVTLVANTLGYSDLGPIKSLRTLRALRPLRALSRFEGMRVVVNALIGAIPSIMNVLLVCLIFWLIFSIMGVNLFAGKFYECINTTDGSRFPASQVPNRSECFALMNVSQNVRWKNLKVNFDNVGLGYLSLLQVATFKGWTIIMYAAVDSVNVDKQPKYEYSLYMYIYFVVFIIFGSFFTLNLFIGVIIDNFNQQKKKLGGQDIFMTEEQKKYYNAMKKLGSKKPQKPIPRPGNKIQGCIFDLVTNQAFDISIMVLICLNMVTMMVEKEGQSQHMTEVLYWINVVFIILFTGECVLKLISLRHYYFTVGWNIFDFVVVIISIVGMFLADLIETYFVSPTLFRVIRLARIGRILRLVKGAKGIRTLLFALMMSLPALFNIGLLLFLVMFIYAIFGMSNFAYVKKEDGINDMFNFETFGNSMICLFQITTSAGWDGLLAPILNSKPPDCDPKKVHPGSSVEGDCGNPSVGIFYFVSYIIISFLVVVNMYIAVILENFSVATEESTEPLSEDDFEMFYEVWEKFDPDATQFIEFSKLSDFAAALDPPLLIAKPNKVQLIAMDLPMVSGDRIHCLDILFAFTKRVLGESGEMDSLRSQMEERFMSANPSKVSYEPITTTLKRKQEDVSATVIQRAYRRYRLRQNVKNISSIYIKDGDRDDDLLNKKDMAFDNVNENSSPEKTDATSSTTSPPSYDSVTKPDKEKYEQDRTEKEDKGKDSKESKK
Method: as §1, §2, §3, §4, §5, §6, §7, §8, §9, §10, §11

| Structure (SMILES) | IC50 [1] | IC50 [2] |
| --- | --- | --- |
| CCOc1ccc(-c2cnnc(C(=O)NNCc3ccccc3F)c2)cc1 [Compound 47, 5-(4-ethoxyphenyl)-N′-(2-fluorobenzyl)pyridazine-3-carbohydrazide] | > 1000 nM | > 1000 nM |
| CCOc1ccc(-c2cncc(C(=O)NN[C@@H](C)c3cc(OC)cc(OC)c3)n2)cc1 (single isomer, unassigned) [Compound 24] | > 1000 nM | > 1000 nM |
| CCOc1ccc(-c2cncc(C(=O)NNCc3ccccc3F)n2)cc1 [Compound 22, 6-(4-ethoxyphenyl)-N′-(2-fluorobenzyl)pyrazine-2-carbohydrazide] | < 500 nM | > 1000 nM |
| CCOc1ccc(-c2cncc(C(=O)NNCc3ccc(Cl)cc3)n2)cc1 [Compound 9, N′-(4-chlorobenzyl)-6-(4-ethoxyphenyl)pyrazine-2-carbohydrazide] | > 1000 nM | > 1000 nM |
| CCOc1ccc(-c2cncc(C(=O)NN[C@H](C)c3cc(OC)cc(OC)c3)n2)cc1 (single isomer, unassigned) [Compound 25] | 500 to 1000 nM | > 1000 nM |
| COc1ccc(-c2cncc(C(=O)NNCc3cc(OC)cc(OC)c3)n2)cc1 [Compound 1, N′-(3,5-dimethoxybenzyl)-6-(4-methoxyphenyl)pyrazine-2-carbohydrazide] | 500 to 1000 nM | > 1000 nM |
| COc1cc(CNNC(=O)c2cncc(-c3ccc(OC(C)C)cc3)n2)cc(OC)c1 [Compound 3, N′-(3,5-dimethoxybenzyl)-6-(4-isopropoxyphenyl)pyrazine-2-carbohydrazide] | < 500 nM | > 1000 nM |
| CCOc1ccc(-c2cncc(C(=O)NNCc3cc(OC)cc(OC)c3)n2)c(C)n1 [Compound 41, N′-(3,5-dimethoxybenzyl)-6-(6-ethoxy-2-methylpyridin-3-yl)pyrazine-2-carbohydrazide] | 500 to 1000 nM | > 1000 nM |
| CCOc1ccc(-c2cncc(C(=O)NN3CCc4ccc(OC)cc4C3)n2)cc1 [Compound 45, 6-(4-ethoxyphenyl)-N-(7-methoxy-3,4-dihydroisoquinoline-2(1H)-yl)pyrazine-2-carboxamide] | < 500 nM | > 1000 nM |
| CCOc1ccc(-c2cncc(C(=O)NN3Cc4ccc(OC)cc4C3)n2)cc1 [Compound 13, 6-(4-ethoxyphenyl)-N-(5-methoxyisoindolin-2-yl)pyrazine-2-carboxamide] | < 500 nM | > 1000 nM |
| CCOc1ccc(-c2cncc(C(=O)NNCc3cc(OC)cc(OC)c3)n2)cc1 [Compound 10, N′-(3,5-dimethoxybenzyl)-6-(4-ethoxyphenyl)pyrazine-2-carbohydrazide] | < 500 nM | 500 to 1000 nM |
| CCOc1ccc(-c2cncc(C(=O)NN3CCOc4ccc(OC)cc4C3)n2)cc1 [Compound 12, 6-(4-ethoxyphenyl)-N-(7-methoxy-2,3-dihydrobenzo[f][1,4]oxazepine-4(5H)-yl)pyrazine-2-carboxamide] | > 1000 nM | > 1000 nM |
| CCOc1ccc(-c2cncc(C(=O)NNCc3cc(OC)ccc3C)n2)cn1 [Compound 33, 6-(6-ethoxypyridin-3-yl)-N′-(5-methoxy-2-methylbenzyl)pyrazine-2-carbohydrazide] | < 500 nM | > 1000 nM |
| CCOc1ccc(-c2cncc(C(=O)NNCc3cc(OC)ccc3F)n2)cc1 [Compound 15, 6-(4-ethoxyphenyl)-N′-(2-fluoro-5-methoxybenzyl)pyrazine-2-carbohydrazide] | < 500 nM | > 1000 nM |
| CCOc1ccc(-c2cncc(C(=O)NNCc3cc(OC)cnc3C)n2)cn1 [Compound 34, 6-(6-ethoxypyridin-3-yl)-N′-((5-methoxy-2-methylpyridin-3-yl)methyl)pyrazine-2-carbohydrazide] | < 500 nM | > 1000 nM |
| CCOc1ccc(-c2cncc(C(=O)NNCc3cc(OC)cnc3F)n2)cn1 [Compound 31, 6-(6-ethoxypyridin-3-yl)-N′-((2-fluoro-5-methoxypyridin-3-yl)methyl)pyrazine-2-carbohydrazide] | > 1000 nM | > 1000 nM |
| CCOc1ccc(-c2cncc(C(=O)NNCc3cc(OC)ccc3C)n2)cc1 [Compound 14, 6-(4-ethoxyphenyl)-N′-(5-methoxy-2-methylbenzyl)pyrazine-2-carbohydrazide] | < 500 nM | > 1000 nM |
| O=C(NNCc1ccc(Cl)cc1)c1cncc(-c2ccc(Cl)cc2)n1 [Compound 5, N′-(4-chlorobenzyl)-6-(4-chlorophenyl)pyrazine-2-carbohydrazide] | > 1000 nM | > 1000 nM |
| COc1cc(CNNC(=O)c2cncc(-c3ccc(OC(F)F)nc3)n2)cc(OC)c1 [Compound 8, 6-(6-(difluoromethoxy)pyridin-3-yl)-N′-(3,5-dimethoxybenzyl)pyrazine-2-carbohydrazide] | < 500 nM | > 1000 nM |
| CCOc1ccc(-c2cncc(C(=O)NNCc3cc(OC)cc(OC)c3)n2)cn1 [Compound 29, N′-(3,5-dimethoxybenzyl)-6-(6-ethoxypyridin-3-yl)pyrazine-2-carbohydrazide] | 500 to 1000 nM | > 1000 nM |
| O=C(NN1CCc2cc(Cl)ccc2C1)c1cncc(-c2ccc(Cl)cc2)n1 [Compound 6, N-(6-chloro-3,4-dihydroisoquinoline-2 (1H)-yl)-6-(4-chlorophenyl)pyrazine-2-carboxamide] | > 1000 nM | > 1000 nM |
| O=C(NNCc1ccc(Cl)cc1)c1cncc(-c2ccc(OC3CC3)cc2)n1 [Compound 4, N′-(4-chlorobenzyl)-6-(4-cyclopropoxyphenyl)pyrazine-2-carbohydrazide] | > 1000 nM | > 1000 nM |
| COc1cc(CNNC(=O)c2cncc(-c3ccc(OC4CC4)nc3)n2)cc(OC)c1 [Compound 42, 6-(6-cyclopropoxypyridin-3-yl)-N′-(3,5-dimethoxybenzyl)pyrazine-2-carbohydrazide] | 500 to 1000 nM | > 1000 nM |
| CCOc1ccc(-c2cncc(C(=O)NN(C)Cc3cc(OC)cc(OC)c3)n2)cc1 [Compound 17, N′-(3,5-dimethoxybenzyl)-6-(4-ethoxyphenyl)-N′-methylpyrazine-2-carbohydrazide] | > 1000 nM | > 1000 nM |
| CCOc1ccc(-c2cncc(C(=O)NNCc3cc(OC)cnc3F)n2)cc1 [Compound 26, 6-(4-ethoxyphenyl)-N′-((2-fluoro-5-methoxypyridin-3-yl)methyl)pyrazine-2-carbohydrazide] | 500 to 1000 nM | > 1000 nM |
| CCOc1ccc(-c2cncc(C(=O)NNCc3ccccc3F)c2)cc1 [Compound 49, 5-(4-ethoxyphenyl)-N′-(2-fluorobenzyl)nicotinohydrazide] | < 500 nM | > 1000 nM |
| CCOc1ccc(-c2cncc(C(=O)NNCc3cc(OC)cc(OC)c3)n2)c(C)c1 [Compound 28, N′-(3,5-dimethoxybenzyl)-6-(4-ethoxy-2-methylphenyl)pyrazine-2-carbohydrazide] | < 500 nM | > 1000 nM |
| CCOc1ccc(-c2cncc(C(=O)NNCc3cc(OC)ccc3F)n2)cn1 [Compound 32, 6-(6-ethoxypyridin-3-yl)-N′-(2-fluoro-5-methoxybenzyl)pyrazine-2-carbohydrazide] | < 500 nM | > 1000 nM |
| CCOc1ccc(-c2cncc(C(=O)NNCc3ccccc3F)n2)cn1 [Compound 39, 6-(6-ethoxypyridin-3-yl)-N′-(2-fluorobenzyl)pyrazine-2-carbohydrazide] | < 500 nM | > 1000 nM |
